The values below come from patent US20240287054A1, “COMPOUNDS THAT BIND NON-CANONICAL G-QUADRUPLEX STRUCTURES AND METHODS OF MAKING AND USING THE SAME” (The U.S.A., as Represented by the Secretary, Department of …, priority 2021, published 2024).

Assay [1] relates to MYCN G4 DNA. Kind of assay: Surface plasmon resonance (SPR) with immobilized biotinylated MYCN G4 DNA. It is filed as binding, human. The procedure:
Surface plasmon resonance (SPR) analysis. The SPR binding assays were performed with a BIAcore 3000 (GE Healthcare) instrument. A CM5 SPR biochip was loaded into the system and primed with running buffer (10 mM Tris, pH7.0, 100 mM KCl, 0.005% Tween 20, 5% DMSO) with a flow rate of 5 μL/min. Then both Flow Cell (Fc) 1 and 2 were activated by EDC/NHS (0.4 M/0.1 M) aqueous solution for 15 min, followed with an injection of streptavidin (SA) solution (0.2 mg/mL in 10 mM sodium acetate buffer, pH4.5) for 30 minutes. After the immobilization amount of SA reached 8,000-10,000 RU, the surface was deactivated by flowing 1 M Ethanolamine aqueous solution (pH 8.5) for 10 min and regenerated with 10 mM NaOH for 2 min to remove the unbound SA. In the meantime, biotinylated MYCN G4 DNA was prepared at 5 μM in the annealing buffer and heated up to 95° C. for 5 min and slowly cooled down. After annealing, a total of 150 μL solution was injected in the Fc 2 of SPR system for 30 min to immobilize DNA onto the chip surface. The small molecule solutions were tested once the baseline was stable.
To detect the binding signal as well as the binding affinity, a higher flowing rate (25 μL/min) was used in both Fc 1 (reference) and Fc 2 (DNA). Each of the compound solution was prepared at 20× designed the concentrations in DMSO, and then diluted into non-DMSO running buffer, resulting in a final concentration of 5% DMSO. Then, a total of 50 μL compound solution was injected in Fc 1-2 flow path for 120 s for association, followed with 200 s running of buffer for dissociation. An injection of 50 μL regeneration buffer (1 M KCl) could be performed between two samples if necessary. The final binding curve was obtained by reference subtraction. To determine the binding affinity (KD), a series of diluted compound solutions were injected and KD was calculated by BIAevaluation 4.0 software (GE Healthcare) using Langmuir 1:1 binding model.
In this example, SPR binding assays were performed to analyze binding activity of representative bivalent compounds of the present disclosure. The compounds of this example included a non-canonical binder component and a G4 stacker component. A BIAcore 3000 (GE Healthcare) instrument was used. A CM5 SPR biochip was used and primed with running buffer (10 mM Tris, pH7.0, 100 mM KCl, 0.005% Tween 20, 5% DMSO). To immobilize the compounds onto the chip surface, the flow rate was set as 5 μL/min. Then the carboxylated dextran on the chip surface was activated by EDC/NHS (0.4 M/0.1 M) aqueous solution for 15 min, followed with an injection of streptavidin (SA) solution (0.2 mg/mL in 10 mM sodium acetate buffer, pH 4.5) for 30 minutes. After the immobilization amount of SA, the surface was quenched by injecting 1 M ethanolamine (EA) aqueous solution (pH 8.5) for 10 min and regenerated with 10 mM NaOH for 2 min to remove the physical adsorption. Furthermore, biotinylated MYCN G4 DNA was prepared at 5 μM in the annealing buffer and heated up to 95° C. for 5 min followed with slowly cooling down to room temperature within 1 h. After annealing, a total of 150 μL solution was injected in the Fc 2 of SPR system for 30 min to immobilize DNA onto the chip surface. The compound solutions were then tested once the baseline was stable.
To detect the binding signal as well as the binding affinity, a higher flowing rate (25 μL/min) was used in both Fc 1 (blank) and Fc 2 (target). Each of the compound solutions was prepared at 20× designed the concentrations in DMSO, and then diluted into non-DMSO running buffer, resulting in a final concentration of 5% DMSO. Then, a total of 50 μL compound solution was injected in Fc 1-2 flow path for 120 s for association, followed with 200 s running of buffer for dissociation. An injection of 50 μL regeneration buffer (1 M KCl) could be performed between two samples if necessary. The final binding curve was obtained by referencing the blank channel (Fc 1). […]

Assay [2] relates to MYCN G4 DNA. Put plainly: Circular dichroism (CD) thermal melting assay of MYCN G4. It is filed as binding, human. The note with it: 10 mM sodium phosphate pH 7.0, 5 mM KCl, 5 μM DNA. The procedure:
For thermal melt assay, MYCN oligonucleotides were prepared in a low KCl buffer (10 mM Tris, pH7.0, 5 mM KCl) at 5 μM concentration. To test the stabilization effect, G4 samples were incubated with and without 20 μM compound (final solution containing 5% DMSO). Then a total of 300 μL solution was added in a cuvette and heated from 20° C. to 95° C. in a CD spectrometer with an interval of 1° C. To calculate the melting temperature (Tm), the peak of CD spectrum at 263 nm was tracked, and […] vs temperature was plotted and fitted using a nonlinear sigmoidal dose-response model with a variable slope in GraphPad Prism 8 software. The shifting of melting temperature (ΔTm) was calculated using Tm (compound)−Tm (DMSO).
For CD melting assay, MYCN oligonucleotides were prepared in KCl buffer (10 mM sodium phosphate, pH7.0, 5 mM KCl) at 5 μM concentration. To test the stabilization effect of the compounds, MYCN G4 DNA samples were mixed with/without the compound (final solution containing 5% DMSO) at designed concentration. Then a total of 300 μL solution was added in a cuvette and heated from 20 to 80° C. in a CD spectrometer with an interval of 1° C. To calculate the melting temperature (Tm), the peak of CD spectrum at 263 nm was tracked, and […] vs temperature was plotted and fitted using a nonlinear sigmoidal dose-response model with a variable slope in GraphPad Prism 8 software.
(CD spectra are sensitive to the conformation of chiral molecules.)

Assay [3] deals with MYCN hairpin-G4 DNA. Kind of assay: FIA using compound fluorescence (Ex 340/Em 500 nm), titration with unlabeled MYCN G4 DNA. It is filed as binding, human. The note with it: 100 nM compound titrated with folded unlabeled MYCN G4. The procedure: In this study, FIA was used for validating the bindings between certain bivalent and MYCN G4 oligos. To measure the binding affinity, a solution of each compound was prepared in triplicate in a 96 well-plate (Costar, black side clear bottom), resulting in a final concentration of 100 nM (5% final DMSO in the working solution). Unlabeled MYCN G4 DNA was folded based on the above-mentioned annealing method, then added into the well plate resulting in different concentrations by a seral dilution. The plate was incubated at room temperature for 30 min, followed by centrifuging at 500 rpm for 2 minutes. The fluorescence intensity was then quantitatively recorded by a Synergy Mx microplate reader (BioTek) at Ex 340 nm/Em 500 nm. The fluorescence intensities were then normalized, and the binding affinity was calculated by fitting the curve using one-site total model in GraphPad Prism 8.3.1 software.

Assay [4] relates to dsDNA. Kind of assay: SPR binding to dsDNA. Particulars: up to 5 μM compound injection. In general terms: Surface plasmon resonance follows binding to a sensor surface in real time, without labels.

Structures are written as SMILES.

For orientation: Kd means a measure of binding affinity in units of concentration.

`COc1ccc2nc3cc(Cl)ccc3c(NCCCNCCCl)c2c1` [Acridine ICR 191, reference compound]: in assay [1] (MYCN G4 binding curves), the SPR binding kinetics entry is reported as “fast-on/off”. For the same molecule, the Kd in assay [1] (MYCN hairpin G4, SPR titration, read-out: KD by SPR) came out at 821 ± 184 nM; in assay [3], 1040 ± 150 nM. The “ΔTm of MYCN G4” value in assay [2] is 4.6 °C. For the same molecule, the “binding to dsDNA on SPR” value in assay [4] is listed as “dose-dependent binding signals”.
